Data set [1] is described as follows: Carcinoma cell growth inhibition (cytotoxicity), A549. The following applies: human, A549 lung carcinoma cells.
Description: (§1) The cancer cell lines including HepG2 and A549 were obtained from American Type Culture Collection (Rockville, MD). The cells were cultured in DMEM medium with 10% FBS (v/v) and penicillin (100 units/ml)/ streptomycin (100 mg/ml). Cultures were maintained in a humidified incubator at 37°C in 5% CO2/95% air. Dulbecco's Modified Eagle Medium (DMEM), fetal bovine serum (FBS), penicillin, streptomycin, and all other tissue culture reagents were obtained from GIBCO/BRL Life Technologies (Grand Island, NY).
(§2) A549 lung carcinoma and HepG2 hepatocarcinoma cells were seeded at 4000 and 10000 cells/well respectively in 96-well plates, as previously described for cell growth inhibition assay [27, 44].
A further data set deals with T1, human GAB (Homo sapiens, UniProt Q9UI32).
T1 construct: Equivalent construct of GAB (Pro56-Val602) was amplified from the cDNA clone; His-tag (N); made in house; host or cells: Escherichia coli C41(DE3)pLysS
T1 sequence (Q9UI32 56-602): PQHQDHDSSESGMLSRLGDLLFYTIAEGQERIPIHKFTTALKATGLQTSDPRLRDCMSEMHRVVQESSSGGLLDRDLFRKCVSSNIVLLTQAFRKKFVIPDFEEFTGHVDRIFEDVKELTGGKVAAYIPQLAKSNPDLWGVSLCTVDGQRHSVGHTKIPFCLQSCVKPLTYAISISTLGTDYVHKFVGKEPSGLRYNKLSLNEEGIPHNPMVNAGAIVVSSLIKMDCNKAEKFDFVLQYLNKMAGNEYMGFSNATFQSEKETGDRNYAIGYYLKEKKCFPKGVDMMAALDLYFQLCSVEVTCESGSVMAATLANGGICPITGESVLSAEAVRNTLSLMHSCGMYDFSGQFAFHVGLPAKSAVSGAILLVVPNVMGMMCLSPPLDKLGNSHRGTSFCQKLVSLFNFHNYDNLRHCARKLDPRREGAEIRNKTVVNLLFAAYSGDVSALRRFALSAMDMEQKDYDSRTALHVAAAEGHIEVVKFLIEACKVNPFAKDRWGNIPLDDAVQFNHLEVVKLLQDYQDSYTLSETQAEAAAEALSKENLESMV
Description: Two-step glutaminase activity assay, purified recombinant GAB. Type of data set: biochemical. The note with it: recombinant wild-type GAB, absence of phosphate. On the procedure:
Equivalent construct of GAB […]) was amplified from the cDNA clone MGC: 195512 IMAGE: 100066375 (Invitrogen Inc., USA). The sequences of the primers were: [NT] (BamHI) and [NT] (Notl). The resultant GAB-expression vector, pET28a(+)-GAB, was transformed into Escherichia coli strain […] Biotech Co., Taiwan). The expression protocol was followed as that protocol of KGA construct. The cells after induction were collected and resuspended in lysis buffer (50 mM Tris-HCl pH 8.5, 500 mM NaCl, 10% glycerol, and 10 mM β-ME) for sonication. […] His-tagged GAB was eluted with lysis buffer containing 200 mM imidazole. The eluted GAB was exchanged to 20 mM Tris-HCl (pH 8.0), 300 mM NaCl, 50% glycerol, and 2 mM dithiothreitol by using a PD-10 Desalting column (GE Healthcare). Human glutaminase activity was measured using a two-step assay as described previously. A microtiter assay format was used to facilitate the collection of multiple data points. […] Samples were incubated at 25°C for 10 min and then 10 μl of 200 mM glutamine were added to the reaction mix. After adding glutamine, the reactions were incubated at 37°C for 60 min and then quenched by the addition of 10 μl of 0.6 M HCl. Subsequently, 100 μl of a second reaction mixture (3.7 units of purified bovine liver glutamate dehydrogenase, 160 mM Tris/acetate [pH 9.4], 400 mM hydrazine, 5 mM ADP and 2 mM NAD^+) was added to the stopped first reaction mixture and incubated for 30 min at 25°C. The absorbance at 340 nm was measured using a Wallac Victor2V plate reader (PerkinElmer), fitted with a 340 nm excitation filter. Sample absorbance was measured against a blank, containing no human glutaminase. The kinetic constants Km and Vmax were determined by using Kaleida Graph software (Synergy Software) to calculate a non-linear least-squares fit for all the data points to the Michaelis-Menten equation.

Data set [2] can be described thus: Carcinoma cell growth inhibition (cytotoxicity), HepG2. The following applies: human, HepG2 hepatocarcinoma cells.
Description: as §1, §2
In the next data set the target is T2, human KGA (Homo sapiens, UniProt O94925).
T2 construct: a KGA cDNA fragment of 1644 bp (residues Leu123-Leu669); His-tag (N); made in house; host or cells: Escherichia coli BL21(DE3)pLysS
T2 sequence (O94925 123-669): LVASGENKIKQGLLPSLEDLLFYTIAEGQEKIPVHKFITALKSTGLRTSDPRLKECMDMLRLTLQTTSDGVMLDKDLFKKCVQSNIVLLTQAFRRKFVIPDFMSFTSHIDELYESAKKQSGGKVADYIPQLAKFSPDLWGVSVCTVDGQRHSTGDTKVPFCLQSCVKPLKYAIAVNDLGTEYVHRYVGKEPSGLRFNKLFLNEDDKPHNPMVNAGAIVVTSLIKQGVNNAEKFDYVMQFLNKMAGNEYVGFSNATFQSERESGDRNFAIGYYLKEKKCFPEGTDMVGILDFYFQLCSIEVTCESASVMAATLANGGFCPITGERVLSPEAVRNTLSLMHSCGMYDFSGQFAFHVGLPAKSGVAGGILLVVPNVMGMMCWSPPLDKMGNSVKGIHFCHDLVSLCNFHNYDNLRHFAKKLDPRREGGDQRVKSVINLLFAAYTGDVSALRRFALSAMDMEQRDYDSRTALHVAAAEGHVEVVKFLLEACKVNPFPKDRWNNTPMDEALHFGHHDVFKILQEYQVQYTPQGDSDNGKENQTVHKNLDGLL
The data set is described as follows: Two-step glutaminase activity assay, purified recombinant KGA. Type of data set: biochemical. The note with it: recombinant wild-type KGA, absence of phosphate. On the procedure: The cDNA fragment of KGA digested with BamHI and NotI at each end was ligated into the pET28a(+) vector (Novagen) and expressed as a his-tag fusion. Escherichia coli strain BL21(DE3)pLysS was transformed with the resulting plasmid, pET28a(+)-KGA, and then cultured in Luria-Bertani broth medium in the presence of kanamycin. […] The cells were harvested by centrifugation at 10,000 rpm for 15 min at 4°C and resuspended in lysis buffer (5 mM Tris-HCl [pH 8.0], 50 mM NaH2PO4, 300 mM NaCl and 10 mM imidazole) for sonication. […] The eluted protein was exchanged to 20 mM Tris-HCl (pH 8.0), 300 mM NaCl, 10% glycerol, and 2 mM dithiothreitol by using a PD-10 Desalting column (GE Healthcare). The concentration of the purified protein was determined by use of the Bio-Rad protein assay reagent with a standard curve plotted against bovine serum albumin. […] A microtiter assay format was used to facilitate the collection of multiple data points. […] Samples were incubated at 25°C for 10 min and then 10 μl of 200 mM glutamine were added to the reaction mix. After adding glutamine, the reactions were incubated at 37°C for 60 min and then quenched by the addition of 10 μl of 0.6 M HCl. Subsequently, 100 μl of a second reaction mixture (3.7 units of purified bovine liver glutamate dehydrogenase, 160 mM Tris/acetate [pH 9.4], 400 mM hydrazine, 5 mM ADP and 2 mM NAD^+) was added to the stopped first reaction mixture and incubated for 30 min at 25°C. The absorbance at 340 nm was measured using a Wallac Victor2V plate reader (PerkinElmer), fitted with a 340 nm excitation filter. Sample absorbance was measured against a blank, containing no human glutaminase. The kinetic constants Km and Vmax were determined by using Kaleida Graph software (Synergy Software) to calculate a non-linear least-squares fit for all the data points to the Michaelis-Menten equation.

The next data set relates to mTORC1. The data set is described as follows: Western blot of mTORC1 components and downstream targets in HepG2 cells. The note with it: co-treatment with AV-1. In kind it is cell-based, human.
Another data set concerns AMPK. Description: Western blot of AMPK_ULK1 axis signaling in HepG2 cells. In kind it is cell-based, human. The note with it: co-treatment with AV-1. In general terms: In western blotting, separated proteins are transferred to a membrane and probed.
Data set [3] is described as follows: in vitro. The note with it: human.
Description: as §1, §2
A short description of data set [4]: in vitro. The note with it: human. This is another data set of the same source.
Description: as §1, §2
For the next data set, the system named is HepG2 cells. Description: Colony (focus) formation assay, HepG2. In kind it is cell-based, human. The note with it: HepG2, 21-day treatment.

As a reminder, the IC50 is the point on the concentration scale where inhibition reaches its midpoint.

Description for AMPK: (§3) The cells were cultured in DMEM medium with 10% FBS (v/v) and penicillin (100 units/ml)/ streptomycin (100 mg/ml). Cultures were maintained in a humidified incubator at 37°C in 5% CO2/95% air. Dulbecco's Modified Eagle Medium (DMEM), fetal bovine serum (FBS), penicillin, streptomycin, and all other tissue culture reagents were obtained from GIBCO/BRL Life Technologies (Grand Island, NY). Antibodies to GAPDH, caspase 3, LC3B, p-ULK1(S317), p-ULK1(S757), Beclin1, p-BCL2(S70), p70S6K, p-p70S6K(T389), 4E-BP1, α-tubulin, 4E-BP, p-4E-BP(S65), p-eIF4B(S422), mTOR, p-mTOR(S2481), p-mTOR(S2448), p-Raptor(S792), Tuberin, p-Tuberin(T1462), p-Tuberin(T1387), p-AMPK(T172) and p-AMPK(S108) were from Cell Signaling Technology; antibody to p-Beclin1(S15) was from Abbiotec; antibodies to KGA and Raptor were from Abcam; antibodies to BCL2 were from Upstate Biotechnology; antibodies to α-tubulin were from Chemicon International; antibodies to ULK1, β-tublin and AMPK were from GeneTex; antibodies to GAB were from abnova and Gene Tex; antibodies to GAC were from ProteinTech Group; antibodies to p-mTOR(S2446) and AMPK were from Millipore; anti-mouse and anti-rabbit IgGs were obtained from PerkinElmer. […] Compound C was obtained from Sigma–Aldrich (St. Louis, MO). Western blotting was performed as described [40].
Description for mTORC1: as §3

As to `CCCCCCCCCCCC(Cc1c(O)c(OC)cc(O)c1C=O)OC(C)=O` (centres unmarked) [AV-10], the CC50 amounted to 22.1 ± 1.6 µM in data set [1] and 21.2 ± 0.8 µM in data set [2]. At human GAB, the IC50 was 23.1 ± 4.9 µM.
As to `Cc1c(O)cc(CCCCCCC/C=C\CCCCCc2cc(O)cc(O)c2)cc1O` [AK-10], the IC50 amounted to 11.7 ± 1.3 µM at human KGA and 2.1 ± 0.1 µM on human GAB.
Regarding `CCCCCCCCCCCC(CC1=C(O)C(=O)C=C(OC)C1=O)OC(C)=O` (centres unmarked) [AV-4], the CC50 in [1] and in [2] was above 50 µM throughout.
As to `c1cc(-c2cnn3cc(-c4ccc(OCCN5CCCCC5)cc4)cnc23)ccn1` [compound C], the “Effect on AV-1 induced phosphorylation of Raptor at Ser792 and Tuberin at Ser1387” value with mTORC1 was “attenuated”. Moreover, in the data set on AMPK, the “Effect on the AV-1 decreased phosphorylation of ULK1 Ser757” value is on record as “reversed”.
Take `CCCCCCCCCCCC(Cc1cc(O)cc(OC)c1O)OC(C)=O` (centres unmarked) [AV-8]: the values for the CC50 in data set [1] and in data set [2] were 11.6 ± 0.4 µM and 18.8 ± 0.7 µM, respectively.
Consider `[N-]=[N+]=CC(=O)CC[C@H](N)C(=O)O` [DON, reference compound], for which the 50% inhibitory concentration (IC50) on human KGA was 59.9 ± 8.8 µM.
On to `COc1cc(O)cc(CCCCCCC/C=C\CCCCCCCc2cc(O)cc(O)c2)c1` [AK-11], for which the figures for the IC50 at human KGA and on human GAB were 13.4 ± 2.2 µM and 2.9 ± 0.5 µM, respectively.
The like results for `Cc1c(O)cc(CCCCC/C=C\CCCCCCCc2cc(O)c(C)c(O)c2)cc1O` [AK-8] were, in that order, 13.9 ± 1.5 µM and 3.1 ± 0.5 µM.
The matching figures for `Cc1c(O)cc(CCCCCCC/C=C\CCCCCCCc2cc(O)cc(O)c2)cc1O` [AK-9]: 11.9 ± 1.2 µM and 2.3 ± 0.5 µM.
Regarding `CCCCCC/C=C\CCCCCCCc1cc(O)c(C)c(O)c1` [AK-4], on human KGA, the IC50 came to 59.8 ± 4.6 µM.
As for `CCCCCCCCCCCCCC(O)Cc1cc(O)cc(OC)c1` (centres unmarked) [AV-12], the CC50 in [1] and in data set [2] was above 50 µM each time. Further, the half-maximal inhibitory concentration (IC50) on human KGA worked out at 52.4 ± 15.5 µM; at human GAB it was 7.6 ± 2 µM.
Regarding `COc1cc(O)cc(CCCCCCC/C=C\CCCCCCCc2cc(O)c(C)c(O)c2)c1` [AK-5], the IC50 at human KGA amounted to 70 ± 1.6 µM; on human GAB it was 2.3 ± 0.4 µM.
`CCCCCCCCCCCCCC1=C(O)C(=O)C=C(OC)C1=O` [AV-7]: the CC50 in the data set “in vitro [3]” and in “in vitro [4]” was above 50 µM each time.
Turning to `COc1cc(O)cc(CCCCCCC/C=C\CCCCCc2cc(O)cc(O)c2)c1` [AK-12], the CC50 in data set [1] is above 100 µM; in data set [2], 84.6 ± 2.3 µM. Moreover, the IC50 at human KGA was 9.6 ± 1.2 µM; on human GAB it was 2.9 ± 0.6 µM.
The like results for `Cc1c(O)cc(CCCCCCC/C=C\CCCCCCCc2cc(O)c(C)c(O)c2)cc1O` [AK-7] were, in that order, above 100 µM, above 100 µM, 17.5 ± 2.6 µM and 2.9 ± 0.8 µM.
The like results for `CCCCCCCCCCCCCC(Cc1cc(OC(C)=O)cc(OC)c1O)OC(C)=O` (centres unmarked) [AV-11] were, in that order, 5 ± 0.8 µM, 5.2 ± 0.3 µM, 69 ± 3.1 µM and 5.7 ± 1.1 µM.
With `COc1cc(O)cc(CCCCC/C=C\CCCCCCCc2cc(O)c(C)c(O)c2)c1` [AK-6], the values for the IC50 on human KGA and at human GAB were 36.7 ± 3.2 µM and 2.5 ± 0.3 µM, respectively.
For the compound `CCCCCCCC/C=C\CCCCCCCc1cc(O)cc(O)c1` [AK-1], the figures for the IC50 on human KGA and on human GAB were 73 ± 3 µM and 2.9 ± 0.6 µM, respectively.
Regarding `CCCCCCCCCCCC(Cc1cc(OC(C)=O)cc(OC)c1O)OC(C)=O` (centres unmarked) [AV-9], the values for the CC50 in data set [1] and in data set [2] were 13 ± 2.1 µM and 13.7 ± 2.2 µM, respectively. The half-maximal inhibitory concentration (IC50) at human GAB was determined as 31.7 ± 6.7 µM.
Turning to `CCCCCCCc1cc(O)cc(OC)c1` [AV-13], the CC50 amounted to 35.5 ± 2.6 µM in data set [1] and 36.9 ± 2 µM in data set [2]. Besides, the IC50 at human KGA was determined as 52.7 ± 2.7 µM.
For the compound `CCCCCCCC/C=C\CCCCCCCc1cc(O)c(C)c(O)c1` [AK-3], the values for the IC50 at human KGA and at human GAB were 76.9 ± 0.8 µM and 2.7 µM, respectively.
With `CCCCCCCCCCCCCC(=O)Cc1cc(O)cc(OC)c1OC(C)=O` [AV-14], the CC50 in [1] and in [2] was above 50 µM in each case. Besides, the IC50 on human KGA stood at 41 ± 5.2 µM; on human GAB, 4.7 ± 1.3 µM.
Turning to `CCCCCCCCCCCCCC(CC1=C(O)C(=O)C=C(OC)C1=O)OC(C)=O` (centres unmarked) [AV-3], the CC50 in data set [1] and in data set [2] was above 50 µM each time. Further, the IC50 on human GAB was determined as 25.1 ± 4.5 µM.
Take `O=C(Cc1ccccc1)Nc1nnc(CCSCCc2nnc(NC(=O)Cc3ccccc3)s2)s1` [BPTES]: the IC50 in the data set on HepG2 cells was 2.8 ± 0.4 µM.

The values are drawn from publication PMC4171615, “Discovery of selective inhibitors of Glutaminase-2, which inhibit mTORC1, activate autophagy and inhibit proliferation in cancer cells” (Oncotarget, 2014).
